Assay results from ChEMBL document CHEMBL1139381 (J Med Chem, 2009).

How the values were obtained:
Plasmodium falciparum [1] = assay: Antimalarial activity after 48 hrs against chloroquine-sensitive Plasmodium falciparum NF54 infected human A+ erythrocytes by [3H]hypoxanthine uptake; type: functional, organism-based
Plasmodium falciparum [2] = assay: Antimalarial activity after 48 hrs against chloroquine-resistant asynchronous Plasmodium falciparum K1 infected human A+ erythrocytes by [3H]hypoxanthine uptake; type: functional, organism-based
Plasmodium falciparum [3] = assay: Antimalarial activity after 72 hrs against chloroquine-resistant Plasmodium falciparum W2 infected human A+ erythrocytes by Makler LDH reporter assay; type: functional, organism-based; settings: W2, 72 h
Plasmodium falciparum [4] = assay: Antimalarial activity after 72 hrs against chloroquine-sensitive Plasmodium falciparum D10 infected human A+ erythrocytes in Makler LDH reporter assay; type: functional, organism-based; settings: D10, 72 h
[5] = Apparent volume of distribution in CD-COBS rat at 5 mg/kg, iv; type: ADME, organism-based; parameters: dose 5 mg/kg, route intravenous; settings: in vivo
[6] = Elimination half life in CD-COBS rat at 5 mg/kg, iv; type: ADME, organism-based; parameters: dose 5 mg/kg, route intravenous; settings: in vivo
Plasmodium falciparum [7] = assay: Antimalarial activity after 24 hrs against chloroquine-sensitive Plasmodium falciparum 3D7 infected human A+ erythrocytes by [3H]hypoxanthine uptake; type: functional, organism-based
[8] = Cytotoxicity against human Daudi cells by MTT assay; type: cell-based; settings: read-out: TC50 (the source's name)
[9] = Cytotoxicity against PHA-stimulated human lymphocytes by MTT assay; type: cell-based, Lymphocyte; settings: read-out: TC50 (the source's name)
[10] = Cytotoxicity against human KB cells by MTT assay; type: cell-based; settings: read-out: TC50 (the source's name)
[11] = Cytotoxicity against mouse NSO cells by MTT assay; type: cell-based; settings: read-out: TC50 (the source's name)
Plasmodium falciparum [12] = assay: Antimalarial activity after 24 hrs against chloroquine-resistant synchronous Plasmodium falciparum K1 infected human A+ erythrocytes by [3H]hypoxanthine uptake; type: functional, organism-based
Plasmodium chabaudi [13] = assay: Antimalarial activity as reduced parasitaemia against Plasmodium chabaudi AS infected CD1 mice (Mus musculus) at 50 mg/kg/day peroral dose; type: functional; parameters: scale not given: the % may be the effect or the level left; settings: route oral
[14] = target: T1, Histidine-rich protein PFHRP-II (Plasmodium falciparum) (UniProt P05227); assay: Inhibition of beta-hematin assessed as molar equivalents at pH 2.7 after 18 hrs by spectrophotometric microassay relative to hemin; type: functional
T1 sequence (whole entry): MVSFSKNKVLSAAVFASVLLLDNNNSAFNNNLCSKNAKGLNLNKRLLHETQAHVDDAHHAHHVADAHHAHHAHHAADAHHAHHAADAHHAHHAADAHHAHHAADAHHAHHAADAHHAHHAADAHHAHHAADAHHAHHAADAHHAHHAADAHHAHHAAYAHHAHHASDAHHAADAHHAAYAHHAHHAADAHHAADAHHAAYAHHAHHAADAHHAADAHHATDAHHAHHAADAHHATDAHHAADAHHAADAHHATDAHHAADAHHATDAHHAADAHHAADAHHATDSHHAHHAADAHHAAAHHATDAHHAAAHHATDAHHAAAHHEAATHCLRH

Plasmodium berghei [15] = assay: Antimalarial activity as reduced parasitaemia against Plasmodium berghei ANKA infected CD1 mice (Mus musculus) at 30 mg/kg/day intraperitoneal dose over 4 days; type: functional; parameters: scale not given: the % may be the effect or the level left
Liver [16] = assay: AUC (0 to t) in CD-COBS rat liver at 50 mg/kg, po after 180 mins; type: ADME, organism-based; parameters: time < 3 hr, dose 50 mg/kg, route oral; settings: in vivo, 3 h
[17] = Ratio of drug level in blood to plasma of CD-COBS rat at 5 mg/kg, iv; type: ADME, organism-based; parameters: dose 5 mg/kg, route intravenous; settings: blood and plasma
[18] = Cmax in CD-COBS rat at 50 mg/kg, po after 60 mins; type: ADME, organism-based; parameters: time < 1 hr, dose 50 mg/kg, route oral; settings: in vivo, read-out: AUC
Plasmodium berghei [19] = assay: Antimalarial activity as reduced parasitaemia against Plasmodium berghei ANKA infected CD1 mice (Mus musculus) at 50 mg/kg/day peroral dose over 4 days; type: functional; parameters: scale not given: the % may be the effect or the level left; settings: route oral
Rattus norvegicus = assay: AUC (0 to t) in CD-COBS rat at 50 mg/kg, po after 60 mins; type: ADME, organism-based, Plasma; parameters: time < 1 hr, dose 50 mg/kg, route oral; settings: in vivo, 1 h
Liver [20] = assay: AUC (0 to t) in CD1 albino mouse liver at 50 mg/kg, po after 180 mins; type: ADME, organism-based; parameters: time < 3 hr, dose 50 mg/kg, route oral; settings: in vivo, 3 h
[21] = Liver concentration in CD1 albino mouse at 50 mg/kg, po after 180 mins
[22] = Ratio of drug level in liver to plasma of CD1 albino mouse at 50 mg/kg, po after 180 mins; type: ADME, organism-based; parameters: dose 50 mg/kg, route oral; settings: liver and plasma
[23] = Ratio of drug level in liver to plasma of CD-COBS rat at 50 mg/kg, po after 180 mins; type: ADME, organism-based; parameters: dose 50 mg/kg, route oral; settings: liver and plasma
[24] = Cmax in CD1 albino mouse at 50 mg/kg, po after 60 mins; type: ADME, organism-based; parameters: dose 50 mg/kg, route oral; settings: in vivo
[25] = Liver concentration in CD-COBS rat at 50 mg/kg, po after 180 mins
Plasmodium berghei [26] = assay: Antimalarial activity as increased survival against Plasmodium berghei ANKA infected CD1 mice (Mus musculus) at 50 mg/kg/day peroral dose over 4 days; type: functional; settings: route oral
Mus musculus = assay: AUC (0 to t) in CD1 albino mouse at 50 mg/kg, po after 60 mins; type: ADME, organism-based, Plasma; parameters: time < 1 hr, dose 50 mg/kg, route oral; settings: in vivo, 1 h
Plasmodium berghei [27] = assay: Antimalarial activity as increased survival against Plasmodium berghei ANKA infected CD1 mice (Mus musculus) at 10 mg/kg/day peroral dose over 4 days; type: functional; settings: route oral
Plasmodium chabaudi [28] = assay: Antimalarial activity as reduced parasitaemia against Plasmodium chabaudi AS infected CD1 mice (Mus musculus) at 10 mg/kg/day peroral dose over 4 days; type: functional; parameters: scale not given: the % may be the effect or the level left; settings: route oral
Plasmodium berghei [29] = assay: Antimalarial activity as reduced parasitaemia against Plasmodium berghei ANKA infected CD1 mice (Mus musculus) at 150 mg/kg/day oral dose over 4 days; parameters: scale not given: the % may be the effect or the level left

| SMILES | IC50 (Plasmodium falciparum [1]) | IC50 (Plasmodium falciparum [2]) | IC50 (Plasmodium falciparum [3]) | IC50 (Plasmodium falciparum [4]) | IC50 (Plasmodium falciparum [7]) | IC50 (Plasmodium falciparum [12]) | Activity (Plasmodium chabaudi [13]) | other results |
| --- | --- | --- | --- | --- | --- | --- | --- | --- |
| Clc1ccc(C(Nc2ccnc3cc(Cl)ccc23)c2ccc(CN3CCOCC3)cc2)cc1 (racemic) | 19 nM | 21 nM | 84 nM | 87 nM | – | – | – | – |
| Clc1ccc(C(Nc2ccnc3cc(Cl)ccc23)c2ccc(CN3CCCC3)cc2)cc1 (racemic) | 13 nM | 14 nM | 72 nM | 46 nM | 3.7 nM | 9 nM | 99.5% | Vd [5]: 40 L/kg; half-life [6]: 0.733 h; CC50 [8]: 8600 nM; CC50 [9]: 17300 nM; CC50 [10]: 19600 nM; CC50 [11]: 8600 nM |
| COc1ccc2nc3cc(Cl)ccc3c(NC(c3ccc(Cl)cc3)(c3ccc(Cl)cc3)c3ccc(CN4CCCC4)cc3)c2c1 | 135 nM | 199 nM | 149 nM | 143 nM | – | – | – | – |
| Clc1ccc([C@](c2ccccc2)(c2ccc(CN3CCCC3)cc2)n2ccnc2)cc1 | – | – | 59 nM | 130 nM | 7 nM | 5 nM | 94.8% | Ratio [14]: 2.5; Activity (Plasmodium berghei [15]): 37.6% |
| Clc1ccc(C(Nc2ccnc3cc(Cl)ccc23)(c2ccccc2)c2ccc(CN3CCCC3)cc2)cc1 (racemic) | – | – | 51 nM | 40 nM | 3 nM | 22 nM | 99.9% | – |
| COc1ccc2nccc(NC(c3ccc(CN4CCCC4)cc3)c3cccc(Cl)c3)c2c1 (racemic) | 39 nM | 65 nM | 55 nM | 40 nM | – | – | – | – |
| Clc1ccc(C(Nc2ccnc3cc(Cl)ccc23)(c2ccc(Cl)cc2)c2ccc(CN3CCCC3)cc2)cc1 | 16 nM | 28 nM | 56 nM | 48 nM | – | – | – | – |
| Clc1cccc(C(Nc2ccnc3cc(Cl)ccc23)c2ccc(CN3CCCC3)cc2)c1 (racemic) | 12 nM | 16 nM | 22 nM | 21 nM | 24 nM | 65 nM | 98% | AUC (Liver [16]): 2945 µg/g; Vd [5]: 48 L/kg; half-life [6]: 3 h; blood plasma ratio [17]: 1.1; Cmax [18]: 180 ng/mL; CC50 [8]: 34600 nM; Ratio [14]: 1.33; CC50 [9]: 54100 nM; Activity (Plasmodium berghei [19]): 98%; AUC (Rattus norvegicus): 422 ng·h/mL; AUC (Liver [20]): 7061 µg/g; concentration at 3 h [21]: 52200 ng/g; CC50 [11]: 23800 nM; Kp at 3 h [22]: > 100; Kp at 3 h [23]: > 100; Cmax [24]: 330 ng/mL; concentration at 3 h [25]: 30500 ng/g; Survival (Plasmodium berghei [26]): 18 days; AUC (Mus musculus): 725 ng·h/mL |
| FC(F)(F)c1cc(NC(c2ccc(Cl)cc2)c2ccc(CN3CCCC3)cc2)c2cccc(C(F)(F)F)c2n1 (racemic) | – | – | 1370 nM | 1240 nM | 100 nM | 450 nM | – | CC50 [10]: 213000 nM |
| CCN(CC)CCCC(C)Nc1ccnc2cc(Cl)ccc12 (stereo not given) [CHLOROQUINE] | – | – | – | – | – | – | – | CC50 [8]: 16700 nM; CC50 [9]: 18600 nM; Survival (Plasmodium berghei [27]): 16.3 days; CC50 [11]: 14900 nM; Activity (Plasmodium chabaudi [28]): 99.9% |
| COc1ccc2nccc(NC(c3ccc(CN4CCOCC4)cc3)c3cccc(Cl)c3)c2c1 (racemic) | 43 nM | 67 nM | 127 nM | 86 nM | – | – | – | – |
| Clc1ccccc1C(c1ccccc1)(c1ccccc1)n1ccnc1 [CLOTRIMAZOLE] | – | – | – | – | – | – | 6% | Activity (Plasmodium berghei [29]): 28.3% |
| Clc1cccc(C(Nc2ccnc3cc(Cl)ccc23)c2ccc(CN3CCOCC3)cc2)c1 (racemic) | 43 nM | 62 nM | 220 nM | 142 nM | – | – | – | – |
| FC(F)(F)c1ccc2c(NC(c3ccc(CN4CCOCC4)cc3)c3cccc(Cl)c3)ccnc2c1 (racemic) | – | – | 304 nM | 234 nM | – | – | – | – |
| COc1ccc2nccc(NC(c3ccc(Cl)cc3)c3ccc(CN4CCOCC4)cc3)c2c1 (racemic) | 33 nM | 54 nM | 65 nM | 67 nM | – | – | – | – |
| COc1ccc2nc3cc(Cl)ccc3c(NC(c3ccc(Cl)cc3)c3ccc(CN4CCCC4)cc3)c2c1 (racemic) | 19 nM | 20 nM | 59 nM | 49 nM | 1 nM | 8 nM | 99.9% | CC50 [8]: 11100 nM; CC50 [9]: 16600 nM; CC50 [11]: 11100 nM |
| COc1ccc2nccc(NC(c3ccc(Cl)cc3)c3ccc(CN4CCCC4)cc3)c2c1 (racemic) | 32 nM | 32 nM | 82 nM | 57 nM | 8 nM | 60 nM | – | CC50 [10]: 8500 nM |
| FC(F)(F)c1ccc2c(NC(c3ccc(Cl)cc3)c3ccc(CN4CCCC4)cc3)ccnc2c1 (racemic) | 33 nM | 20 nM | 90 nM | 61 nM | – | 30 nM | 99.6% | CC50 [8]: 14100 nM; CC50 [9]: 24200 nM; CC50 [10]: 5500 nM; CC50 [11]: 12100 nM |
